For one compound, Kd results are on record in paper PMC8591507, “Progesterone receptor membrane component 1 (PGRMC1) binds and stabilizes cytochromes P450 through a heme-independent mechanism” (The Journal of Biological Chemistry, 2021).

In assay [1] the target is T1, Y113F PGRMC1 (progesterone receptor membrane component 1) (Homo sapiens, UniProt O00264, Y113F).
T1 construct: recombinant truncated human PGRMC1 (aa 43–195), His tag removed by thrombin
Kind of assay: spectrophotometric hemin titration (A394), Hill fit. It is filed as binding.

Assay [2] deals with T2, PGRMC1 (progesterone receptor membrane component 1) (Homo sapiens, UniProt O00264).
T2 construct: recombinant truncated human PGRMC1 (aa 43–195), His tag removed by thrombin
T2 sequence (O00264 43-195): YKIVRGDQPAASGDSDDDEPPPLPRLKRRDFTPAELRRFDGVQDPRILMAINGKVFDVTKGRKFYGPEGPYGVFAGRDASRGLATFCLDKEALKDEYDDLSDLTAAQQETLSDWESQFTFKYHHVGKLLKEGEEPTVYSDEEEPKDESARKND
The description is as above. It counts as binding.

T1 sequence (O00264 43-195 Y113F): as the sequence (O00264 43-195) above, with Y71F counted along it

In general, Kd refers to a measure of binding affinity in units of concentration. With `C=CC1=C(C)C2=Cc3c(C=C)c(C)c4[n]3[Fe]([Cl])[n]3c(c(C)c(CCC(=O)O)c3=CC3=NC(=C4)C(C)=C3CCC(=O)O)=CC1=N2` [hemin], the figures for the equilibrium dissociation constant (Kd) in assay [1] and in assay [2] were 4.7 ± 0.42 µM and 4.9 ± 0.33 µM, respectively.
